Data as given in publication PMC2981816, “Oxalyl retro-peptide gelators. Synthesis, gelation properties and stereochemical effects” (Beilstein Journal of Organic Chemistry, 2010).

Experiments:
Type in all cases: physicochemical
[1] = Gelation test: gelator effectiveness (Geff) and minimal gelation concentration in solvents and solvent mixtures; set-up: key to Gelator effectiveness (Geff): sol.: soluble; ins.: insoluble; cr.: crystallization; [A]: gel/sol mixture
Procedure: Gelation observed for selected gelator–solvent pairs is expressed by gelator effectiveness (Geff, mL) corresponding to the maximal volume of solvent that could be immobilized by 10 mg of the gelator (Table 1). […] However, 3a and 5a also gelled small to moderate volumes of EtOH and rac-2-octanol, whilst Leu incorporating 1a formed gels with the more lipophilic solvents, decalin and tetralin. […] Apparently, the retro-peptides incorporating aliphatic and aromatic amino acids are less versatile gelators compared to retro-peptides containing […] amino acid fragments. The latter points to the importance of intermolecular lipophilic interactions for the stabilization of gel assemblies being stronger in the case of identical amino acids either lipophilic or aromatic, and weaker for mixed aromatic-lipophilic amino acid fragments present in the gelator molecule.

[2] = TEM of gel networks (PWK negative staining), fiber diameters; details: water/DMSO gel
Description: TEM images of diastereomeric (S,S)-1a and (S,R)-1a water/DMSO gels (Figure 2 and Figure 3) show highly distinct morphology of gel networks. In the first gel rather straight fibers and fiber bundles with diameters in the range of 40–100 nm could be observed. […] As observed earlier for other gel systems, gelator effectiveness Geff depends not only solubility but also depends on the thickness of fibers constituting the network. […] The TEM observed thicknesses of gel aggregates existing in water/DMSO and toluene gels could be also correlated with gelator effectiveness (Geff, mL, see Table 1 and Table 2). It appears that (S,R)-1b (Geff 19.5 mL, water/DMSO gel) organized in thinner fibers is more than twice effective a gelator than its diasteroisomer (S,S)-1a (Geff 8.0 mL, water/DMSO gel) which forms thicker fiber bundles. In the toluene gel, (S,R)-1b organizes into wide and short tapes with low networking capacity which is reflected in a very low (Geff 0.15 mL) gelator effectiveness. page 11: TEM and SEM investigations: transmission electron micrographs were taken on an EM 10 A Zeiss or FEI Morgagni 268D transmission electron microscope. A small amount of sample was placed on carbon-coated grid (copper, 100 mesh). The sample was negatively stained with PWK (dipotassium phosphotungstate). […]

[3] = Gelation test: gelator effectiveness (Geff) and minimal gelation concentration in solvents and solvent mixtures
[4] = Concentration-dependent 1H NMR of toluene-d8 gel samples (self-assembly saturation point)
Description: In the first case the oxalamide NH and Leu-NH protons were downfield shifted by 1.6 and 1.8 ppm, respectively, for a gelator concentration increase from 0.001–0.1 mol dm^−3. […] The monitored protons of (S,S)-1b are more strongly downfield shifted than the corresponding protons of (S,R)-1b for the same concentration range. Similar trends of NH and C*H concentration induced shifts are observed for (S,S)-1b and its racemate (S,S)-1b/(R,R)-1b toluene-d8 gels (Figure 6). Again the magnitudes of the NH and C*H concentration induced shifts are higher for the (S,S)-1b than for the racemate gel. […]
If the racemate were organized in the conglomerate as separate enantiomeric (S,S)-1b and (R,R)-1b assemblies, the magnitudes of the concentration induced shifts should be similar to those measured the for (S,S)-1b assemblies. […]
The discontinuous concentration induced shift curves obtained for (S,R)-1b diasteroisomer may indicate the presence of different assemblies at lower and higher gelator concentrations. It appears that the first saturation point is reached at a concentration around 0.03 mol dm^-3 and the second at 0.12 mol dm^−3, the latter corresponding nicely to the experimentally determined MGC of 0.116 mol dm^−3. […]

Molecule: CC(C)C[C@H](NC(=O)[C@H](CC(C)C)NC(=O)C(=O)N[C@@H](CC(C)C)C(=O)N[C@@H](CC(C)C)C(=O)O)C(=O)O [(S,S)-1a, (S,S)-bis(LeuLeu)]
- Gelator effectiveness (Geff) ([1]; max. volume immobilized by 10 mg gelator, CH2Cl2, Table 1): ins.
- Gelator effectiveness (Geff) ([1]; max. volume immobilized by 10 mg gelator, CH3CN, Table 1): cr.
- Gelator effectiveness (Geff) ([1]; max. volume immobilized by 10 mg gelator, EtOH, Table 1): sol.
- Gelator effectiveness (Geff) ([1]; max. volume immobilized by 10 mg gelator, H2O/DMF mixture, given as volume + volume, Table 1): 5.84+3.25 mL
- Gelator effectiveness (Geff) ([1]; max. volume immobilized by 10 mg gelator, H2O/DMSO mixture, given as volume + volume, Table 1): 5.09+2.98 mL
- Gelator effectiveness (Geff) ([1]; max. volume immobilized by 10 mg gelator, THF, Table 1): sol.
- Gelator effectiveness (Geff) ([1]; max. volume immobilized by 10 mg gelator, decalin, Table 1): 0.2 mL
- Gelator effectiveness (Geff) ([1]; max. volume immobilized by 10 mg gelator, p-xylene, Table 1): ins.
- Gelator effectiveness (Geff) ([1]; max. volume immobilized by 10 mg gelator, tetralin, Table 1): 1.8 mL
- Gelator effectiveness (Geff) ([1]; max. volume immobilized by 10 mg gelator, toluene, Table 1): cr.
- Gelator effectiveness (Geff) ([1]; max. volume immobilized by 10 mg gelator, ±2-octanol, Table 1): ins.
- Gelator effectiveness (Geff) ([1]; maximal volume of solvent immobilized by 10 mg of gelator, solvent H2O, Table 1): ins.
- Geff, total volume ([1]; water/DMSO gel, total of both solvent volumes, 10 mg gelator): 8.0 mL
- times more effective in gelation than 3a and 5a ([1]; water/DMSO or DMF mixtures): more than 2 times
- fiber / fiber bundle diameter [2]: 40–100 nm
- solubility in water [3]: insoluble

Molecule: (S,R)-N,N'-Oxalyl-bis(leucyl-leucine methyl ester) [(S,R)-1b]
- Gelator effectiveness (Geff) ([1]; max. volume immobilized by 10 mg gelator, CH2Cl2, Table 2): sol.
- Gelator effectiveness (Geff) ([1]; max. volume immobilized by 10 mg gelator, CH3CN, Table 2): cr.
- Gelator effectiveness (Geff) ([1]; max. volume immobilized by 10 mg gelator, EtOH, Table 2): cr.
- Gelator effectiveness (Geff) ([1]; max. volume immobilized by 10 mg gelator, H2O/DMF mixture, given as volume + volume, Table 2): 11.5+11.7 mL
- Gelator effectiveness (Geff) ([1]; max. volume immobilized by 10 mg gelator, H2O/DMSO mixture, given as volume + volume, Table 2): 9.7+10.0 mL
- Gelator effectiveness (Geff) ([1]; max. volume immobilized by 10 mg gelator, H2O, Table 2): ins.
- Gelator effectiveness (Geff) ([1]; max. volume immobilized by 10 mg gelator, THF, Table 2): cr.
- Gelator effectiveness (Geff) ([1]; max. volume immobilized by 10 mg gelator, decalin, Table 2): 0.8 mL
- Gelator effectiveness (Geff) ([1]; max. volume immobilized by 10 mg gelator, p-xylene, Table 2): 0.5 mL
- Gelator effectiveness (Geff) ([1]; max. volume immobilized by 10 mg gelator, tetralin, Table 2): 0.2 mL
- Gelator effectiveness (Geff) ([1]; max. volume immobilized by 10 mg gelator, toluene, Table 2): 0.15 mL
- Gelator effectiveness (Geff) ([1]; max. volume immobilized by 10 mg gelator, ±2-octanol, Table 2): cr.
- minimal gelation concentration (MGC) ([1]; toluene, experimentally determined): 0.116 mol dm^−3
- second saturation point of concentration induced 1H NMR shifts ([4]; toluene-d8): 0.12 mol dm^−3
- saturation point of concentration induced 1H NMR shifts (self-assembly equilibrium) ([4]; toluene-d8, concentration range 0.001–0.1 mol dm^−3, first or only saturation point): around 0.03 mol dm^−3
